From article PMC5218480 (PLoS ONE, 2017) come the findings set out here.

For the assay, the system named is MV-4-11 cells. Nature of the assay: Gene expression microarray analysis (Affymetrix PrimeView) and GSEA. Type of assay: cell-based, human. The arrangement: RFU PODN (11730768_x_at) / Fold change /veh PODN (11730768_x_at) / RFU LINC00158 (11744669_a_at) / Fold change /veh LINC00158 (11744669_a_at) / RFU DUSP10 (11751237_a_at) / Fold change /veh DUSP10 (11751237_a_at) / RFU ID3 (11757404_x_at) / Fold change /veh ID3 (11757404_x_at) / RFU PLEKHG5 (11737974_s_at) / Fold change /veh PLEKHG5 (11737974_s_at) / RFU LRRC4B (11730491_at) / Fold change /veh LRRC4B (11730491_at) / RFU GIMAP4 (11747438_a_at) / Fold change /veh GIMAP4 (11747438_a_at) / RFU KRT8 (11758183_x_at) / Fold change /veh KRT8 (11758183_x_at) / RFU CNN1 (11734310_a_at) / Fold change /veh CNN1 (11734310_a_at) / RFU VPS37D (11726825_at) / Fold change /veh VPS37D (11726825_at) / RFU C10orf10 (11716522_x_at) / Fold change /veh C10orf10 (11716522_x_at) / RFU KIR2DL2 /// KIR2DL4 /// KIR2DL5A /// KIR2DL5B /// KIR2DS1 /// KIR2DS2 /// KIR2DS3 /// KIR2DS4 /// KIR3DL3 /// KIR3DL3 /// KIR3DS1 (11738374_at) / Fold change /veh KIR2DL2 /// KIR2DL4 /// KIR2DL5A /// KIR2DL5B /// KIR2DS1 /// KIR2DS2 /// KIR2DS3 /// KIR2DS4 /// KIR3DL3 /// KIR3DL3 /// KIR3DS1 (11738374_at) / RFU C1QL1 (11718748_at) / Fold change /veh C1QL1 (11718748_at) / RFU TMPRSS4 (11747572_a_at) / Fold change /veh TMPRSS4 (11747572_a_at) / RFU HAMP (11756126_x_at) / Fold change /veh HAMP (11756126_x_at) / RFU RNFT2 (11725882_a_at) / Fold change /veh RNFT2 (11725882_a_at) / RFU NR4A2 (11747474_a_at) / Fold change /veh NR4A2 (11747474_a_at) / RFU ABCC12 (11746883_a_at) / Fold change /veh ABCC12 (11746883_a_at) / RFU TMEM136 (11760407_x_at) / Fold change /veh TMEM136 (11760407_x_at) / RFU CLDN22 /// WWC2 (11732394_at) / Fold change /veh CLDN22 /// WWC2 (11732394_at) / RFU HLA-DPB1 (11760878_x_at) / Fold change /veh HLA-DPB1 (11760878_x_at) / RFU SPINT1 (11716480_a_at) / Fold change /veh SPINT1 (11716480_a_at) / RFU GAP43 (11754022_s_at) / Fold change /veh GAP43 (11754022_s_at) / RFU A4GNT (11735810_at) / Fold change /veh A4GNT (11735810_at) / RFU PRB3 (11715151_x_at) / Fold change /veh PRB3 (11715151_x_at) / RFU TUBB4B (11761932_at) / Fold change /veh TUBB4B (11761932_at) / RFU CAPN14 (11732068_a_at) / Fold change /veh CAPN14 (11732068_a_at) / RFU TMCC2 (11721928_a_at) / Fold change /veh TMCC2 (11721928_a_at) / RFU IRGQ (11745062_a_at) / Fold change /veh IRGQ (11745062_a_at) / RFU FAM174B (11720279_a_at) / Fold change /veh FAM174B (11720279_a_at) / RFU TMPRSS4 (11748680_a_at) / Fold change /veh TMPRSS4 (11748680_a_at) / RFU FAM212B (11763350_a_at) / Fold change /veh FAM212B (11763350_a_at) / RFU PLEKHG5 (11743358_a_at) / Fold change /veh PLEKHG5 (11743358_a_at) / RFU ZSCAN30 (11745921_a_at) / Fold change /veh ZSCAN30 (11745921_a_at) / RFU CMKLR1 (11741424_a_at) / Fold change /veh CMKLR1 (11741424_a_at) / RFU LOC101060620 /// MAPK8IP1 (11723275_at) / Fold change /veh LOC101060620 /// MAPK8IP1 (11723275_at) / RFU SPTSSB (11747773_x_at) / Fold change /veh SPTSSB (11747773_x_at) / RFU PRSS12 (11739890_at) / Fold change /veh PRSS12 (11739890_at) / RFU BIN1 (11741810_x_at) / Fold change /veh BIN1 (11741810_x_at) / RFU WNT11 (11732464_a_at) / Fold change /veh WNT11 (11732464_a_at) / RFU C10orf10 (11716521_a_at) / Fold change /veh C10orf10 (11716521_a_at) / RFU C5orf56 (11738089_at) / Fold change /veh C5orf56 (11738089_at) / RFU CYB561 (11721691_x_at) / Fold change /veh CYB561 (11721691_x_at) / RFU ANKRD19P (11752326_a_at) / Fold change /veh ANKRD19P (11752326_a_at) / RFU OR2T12 /// OR2T33 /// OR2T8 (11738714_s_at) / Fold change /veh OR2T12 /// OR2T33 /// OR2T8 (11738714_s_at) / RFU VCAN (11748164_a_at) / Fold change /veh VCAN (11748164_a_at) / RFU JSRP1 (11732532_at) / Fold change /veh JSRP1 (11732532_at) / RFU KRTAP10-11 (11738290_x_at) / Fold change /veh KRTAP10-11 (11738290_x_at) / RFU MYO3A (11730013_a_at) / Fold change /veh MYO3A (11730013_a_at) / RFU EBF3 (11725865_a_at) / Fold change /veh EBF3 (11725865_a_at) / RFU CAMK2N1 (11719241_x_at) / Fold change /veh CAMK2N1 (11719241_x_at) / RFU C5orf56 (11738088_a_at) / Fold change /veh C5orf56 (11738088_a_at) / RFU OLFML3 (11715873_a_at) / Fold change /veh OLFML3 (11715873_a_at) / RFU LOC100653217 /// NTM (11731650_a_at) / Fold change /veh LOC100653217 /// NTM (11731650_a_at) / RFU MAPK11 (11762145_a_at) / Fold change /veh MAPK11 (11762145_a_at) / RFU FIZ1 (11724087_x_at) / Fold change /veh FIZ1 (11724087_x_at) / RFU OASL (11726364_x_at) / Fold change /veh OASL (11726364_x_at) / RFU SOX15 (11748057_x_at) / Fold change /veh SOX15 (11748057_x_at) / RFU CD79A (11719716_a_at) / Fold change /veh CD79A (11719716_a_at) / RFU HIST1H1D (11736915_at) / Fold change /veh HIST1H1D (11736915_at) / RFU CASKIN2 (11723855_a_at) / Fold change /veh CASKIN2 (11723855_a_at) / RFU LOC730098 (11760151_x_at) / Fold change /veh LOC730098 (11760151_x_at) / RFU OR4N2 (11742367_at) / Fold change /veh OR4N2 (11742367_at) / RFU PRRT2 (11749266_a_at) / Fold change /veh PRRT2 (11749266_a_at) / RFU SNX32 (11753110_a_at) / Fold change /veh SNX32 (11753110_a_at) / RFU CDHR5 (11726645_a_at) / Fold change /veh CDHR5 (11726645_a_at) / RFU RCAN1 (11760418_a_at) / Fold change /veh RCAN1 (11760418_a_at) / RFU FAM167A (11723789_a_at) / Fold change /veh FAM167A (11723789_a_at) / RFU FAM26E (11764081_at) / Fold change /veh FAM26E (11764081_at) / RFU ISYNA1 (11749810_s_at) / Fold change /veh ISYNA1 (11749810_s_at) / RFU ACY1 (11761880_at) / Fold change /veh ACY1 (11761880_at) / RFU 11764098_at / Fold change /veh 11764098_at / RFU SAMD14 (11745864_x_at) / Fold change /veh SAMD14 (11745864_x_at) / RFU NPB (11741838_a_at) / Fold change /veh NPB (11741838_a_at) / RFU TMPRSS6 (11731388_a_at) / Fold change /veh TMPRSS6 (11731388_a_at) / RFU KRTAP10-2 (11738614_at) / Fold change /veh KRTAP10-2 (11738614_at) / RFU ARHGAP8 /// PRR5-ARHGAP8 (11727945_x_at) / Fold change /veh ARHGAP8 /// PRR5-ARHGAP8 (11727945_x_at) / RFU KRTAP5-7 /// NADSYN1 (11734609_at) / Fold change /veh KRTAP5-7 /// NADSYN1 (11734609_at) / RFU RASL12 (11751679_a_at) / Fold change /veh RASL12 (11751679_a_at) / RFU CDKN2B (11736163_a_at) / Fold change /veh CDKN2B (11736163_a_at) / RFU PRF1 (11729649_at) / Fold change /veh PRF1 (11729649_at) / RFU, ZNF638 /// ZNF638-IT1 / Fold change vs veh, ZNF638 /// ZNF638-IT1 / RFU, PANK3 / Fold change vs veh, PANK3 / RFU, SH3YL1 / Fold change vs veh, SH3YL1 / RFU, ZEB2 / Fold change vs veh, ZEB2 / RFU, NRIP1 / Fold change vs veh, NRIP1 / RFU, PTTG1IP / Fold change vs veh, PTTG1IP / RFU, CAPN2 / Fold change vs veh, CAPN2 / RFU, MED14 / Fold change vs veh, MED14 / RFU, SNORA58 / Fold change vs veh, SNORA58 / RFU, C1orf63 / Fold change vs veh, C1orf63 / RFU, LRRFIP1 / Fold change vs veh, LRRFIP1 / RFU, NDUFAF7 / Fold change vs veh, NDUFAF7 / RFU, SLC12A2 / Fold change vs veh, SLC12A2 / RFU, IBTK / Fold change vs veh, IBTK / RFU, ESF1 / Fold change vs veh, ESF1 / Fold change vs veh, TMEM50B / RFU, TAOK1 / Fold change vs veh, TAOK1 / RFU, ACBD3 / Fold change vs veh, ACBD3 / RFU, TMA16 / Fold change vs veh, TMA16 / RFU, RWDD3 / Fold change vs veh, RWDD3 / RFU, BCAT1 / Fold change vs veh, BCAT1 / RFU, EDEM3 / Fold change vs veh, EDEM3 / RFU, TMEM33 / Fold change vs veh, TMEM33 / RFU, WDR75 / Fold change vs veh, WDR75 / RFU, AHCTF1 / Fold change vs veh, AHCTF1 / RFU, TFRC / Fold change vs veh, TFRC / RFU, ZDHHC17 / Fold change vs veh, ZDHHC17 / RFU, NOM1 / Fold change vs veh, NOM1 / RFU, ARL8B / Fold change vs veh, ARL8B / RFU, ZBTB11 / Fold change vs veh, ZBTB11 / RFU, TAMM41 / Fold change vs veh, TAMM41 / RFU, KIAA1704 /// LOC100996395 / Fold change vs veh, KIAA1704 /// LOC100996395 / RFU, ING1 / Fold change vs veh, ING1 / RFU, TRMT61B / Fold change vs veh, TRMT61B / RFU, FUBP3 / Fold change vs veh, FUBP3 / RFU, TP53 / Fold change vs veh, TP53 / RFU, TNKS2 / Fold change vs veh, TNKS2 / RFU, ZFP14 / Fold change vs veh, ZFP14 / RFU, ACTR2 / Fold change vs veh, ACTR2 / RFU, PPP3R1 / Fold change vs veh, PPP3R1 / RFU, PIK3R1 / Fold change vs veh, PIK3R1 / RFU, HNRNPA1 / Fold change vs veh, HNRNPA1 / RFU, RNF170 / Fold change vs veh, RNF170 / RFU, ZNF28 / Fold change vs veh, ZNF28 / RFU, RNGTT / Fold change vs veh, RNGTT / RFU, OGT / Fold change vs veh, OGT / RFU, BRD1 / Fold change vs veh, BRD1 / RFU, MARS / Fold change vs veh, MARS / RFU, ZNF655 / Fold change vs veh, ZNF655 / RFU, FAHD1 / Fold change vs veh, FAHD1 / RFU, BDP1 / Fold change vs veh, BDP1 / RFU, LRRCC1 / Fold change vs veh, LRRCC1 / RFU, ARID1A / Fold change vs veh, ARID1A / RFU, ZNF146 / Fold change vs veh, ZNF146 / RFU, ZNF330 / Fold change vs veh, ZNF330 / RFU, GPN3 / Fold change vs veh, GPN3 / RFU, C9orf123 / Fold change vs veh, C9orf123 / RFU, N4BP2L2 / Fold change vs veh, N4BP2L2 / RFU, ARFIP1 / Fold change vs veh, ARFIP1 / RFU, FAM179B / Fold change vs veh, FAM179B / RFU, BCL10 / Fold change vs veh, BCL10 / RFU, UHRF1BP1L / Fold change vs veh, UHRF1BP1L / RFU, BET1 / Fold change vs veh, BET1 / RFU, CNOT2 / Fold change vs veh, CNOT2 / RFU, ZNF268 / Fold change vs veh, ZNF268 / Fold change vs veh, ZNF507 / RFU, DGCR2 / Fold change vs veh, DGCR2 / RFU, WDSUB1 / Fold change vs veh, WDSUB1 / Fold change vs veh, HSP90B1 /// MIR3652 / RFU, ADSS / Fold change vs veh, ADSS / RFU, GK / Fold change vs veh, GK / RFU, ZNF148 / Fold change vs veh, ZNF148 / RFU, TAF9 / Fold change vs veh, TAF9 / RFU, SLC1A5 / Fold change vs veh, SLC1A5 / RFU, SLMO2 / Fold change vs veh, SLMO2 / RFU, ABCC4 / Fold change vs veh, ABCC4 / RFU, LOC101060439 /// RAP1B / Fold change vs veh, LOC101060439 /// RAP1B / RFU, RFX7 / Fold change vs veh, RFX7 / RFU, GTPBP10 / Fold change vs veh, GTPBP10 / RFU, CNEP1R1 / Fold change vs veh, CNEP1R1 / RFU, BIVM-ERCC5 /// ERCC5 / Fold change vs veh, BIVM-ERCC5 /// ERCC5 / RFU, ILF3 / Fold change vs veh, ILF3 / RFU 11762660_at / Fold change /veh 11762660_at / RFU VCAN (11757783_s_at) / Fold change /veh VCAN (11757783_s_at) / RFU DDX43 (11728927_at) / Fold change /veh DDX43 (11728927_at) / RFU KRT8 (11758188_x_at) / Fold change /veh KRT8 (11758188_x_at) / RFU NKD1 (11759106_at) / Fold change /veh NKD1 (11759106_at) / RFU SRD5A1 (11742802_a_at) / Fold change /veh SRD5A1 (11742802_a_at) / RFU TPSAB1 /// TPSB2 (11721975_s_at) / Fold change /veh TPSAB1 /// TPSB2 (11721975_s_at) / RFU GSTM3 (11746129_a_at) / Fold change /veh GSTM3 (11746129_a_at) / RFU IL23R (11737362_x_at) / Fold change /veh IL23R (11737362_x_at) / RFU TMEM51 (11727254_a_at) / Fold change /veh TMEM51 (11727254_a_at) / RFU PIWIL2 (11732686_x_at) / Fold change /veh PIWIL2 (11732686_x_at) / RFU ORM1 (11744905_x_at) / Fold change /veh ORM1 (11744905_x_at) / RFU CCDC152 (11743942_at) / Fold change /veh CCDC152 (11743942_at) / RFU ECM1 (11717891_a_at) / Fold change /veh ECM1 (11717891_a_at) / RFU IL23R (11748794_a_at) / Fold change /veh IL23R (11748794_a_at) / RFU TNFAIP8L3 (11732012_x_at) / Fold change /veh TNFAIP8L3 (11732012_x_at) / RFU MBOAT4 (11741988_at) / Fold change /veh MBOAT4 (11741988_at) / RFU 11764193_at / Fold change /veh 11764193_at / RFU TMEM53 (11763286_at) / Fold change /veh TMEM53 (11763286_at) / RFU MAGEB2 (11727129_at) / Fold change /veh MAGEB2 (11727129_at) / RFU TMEM200A (11744735_a_at) / Fold change /veh TMEM200A (11744735_a_at) / RFU CCDC152 (11751479_a_at) / Fold change /veh CCDC152 (11751479_a_at) / RFU FAM211A (11726209_a_at) / Fold change /veh FAM211A (11726209_a_at) / RFU RGS16 (11746705_a_at) / Fold change /veh RGS16 (11746705_a_at) / RFU VCAN (11755009_s_at) / Fold change /veh VCAN (11755009_s_at) / RFU RHOB (11743442_s_at) / Fold change /veh RHOB (11743442_s_at) / RFU RGS16 (11720943_a_at) / Fold change /veh RGS16 (11720943_a_at) / RFU RGS16 (11720944_at) / Fold change /veh RGS16 (11720944_at) / RFU, VPS4B / Fold change vs veh, VPS4B / RFU, CREB1 / Fold change vs veh, CREB1 / RFU, DNAJC13 / Fold change vs veh, DNAJC13 / RFU, GNAQ / Fold change vs veh, GNAQ / RFU, CDK5R1 / Fold change vs veh, CDK5R1 / RFU, ZRANB3 / Fold change vs veh, ZRANB3 / RFU, CUL4A / Fold change vs veh, CUL4A / RFU, CCNY / Fold change vs veh, CCNY / RFU, UFL1 / Fold change vs veh, UFL1 / RFU, COG3 / Fold change vs veh, COG3 / RFU, DIAPH2 / Fold change vs veh, DIAPH2 / RFU, SKA2 / Fold change vs veh, SKA2 / RFU, AFF3 / Fold change vs veh, AFF3 / RFU, LMF1 / Fold change vs veh, LMF1 / RFU, IPO11 / Fold change vs veh, IPO11 / RFU, DFFB / Fold change vs veh, DFFB / RFU, FOXP1 / Fold change vs veh, FOXP1 / RFU, CARD8 / Fold change vs veh, CARD8 / RFU, STRN3 / Fold change vs veh, STRN3 / RFU, ADK / Fold change vs veh, ADK / RFU, RASSF2 / Fold change vs veh, RASSF2 / RFU, WIPF1 / Fold change vs veh, WIPF1 / RFU, LARP1B / Fold change vs veh, LARP1B / RFU, RASA1 / Fold change vs veh, RASA1 / RFU, RB1 / Fold change vs veh, RB1 / RFU, PPFIA1 / Fold change vs veh, PPFIA1 / RFU, MAT2A / Fold change vs veh, MAT2A / RFU, CCT5 / Fold change vs veh, CCT5 / RFU, WDR92 / Fold change vs veh, WDR92 / RFU, CUX1 / Fold change vs veh, CUX1 / RFU, TTC7A / Fold change vs veh, TTC7A / RFU, TMEM135 / Fold change vs veh, TMEM135 / RFU, DEPTOR / Fold change vs veh, DEPTOR / RFU, CPM / Fold change vs veh, CPM / RFU, DNAJB6 / Fold change vs veh, DNAJB6 / RFU, CACNA2D3 / Fold change vs veh, CACNA2D3 / RFU, DTX4 / Fold change vs veh, DTX4 / RFU, TFCP2 / Fold change vs veh, TFCP2 / RFU, GMCL1 /// GMCL1P1 / Fold change vs veh, GMCL1 /// GMCL1P1 / RFU, AEBP2 / Fold change vs veh, AEBP2 / RFU, SNHG1 /// SNORD22 /// SNORD25 /// SNORD26 /// SNORD27 /// SNORD28 /// SNORD29 /// SNORD31 / Fold change vs veh, SNHG1 /// SNORD22 /// SNORD25 /// SNORD26 /// SNORD27 /// SNORD28 /// SNORD29 /// SNORD31 / Fold change (Aza/veh), C12orf56 (ProbeSet 11735607_a_at) / Fold change (ACY-1035/veh), C12orf56 (ProbeSet 11735607_a_at) / Fold change (Aza/veh), FGFR1OP (ProbeSet 11751329_s_at) / Fold change (ACY-1035/veh), FGFR1OP (ProbeSet 11751329_s_at) / Fold change (Aza/veh), VPS36 (ProbeSet 11739960_a_at) / Fold change (ACY-1035/veh), VPS36 (ProbeSet 11739960_a_at) / RFU SYPL1 (11715823_x_at) / Fold change /veh SYPL1 (11715823_x_at) / RFU IGFBP7 (11715501_s_at) / Fold change /veh IGFBP7 (11715501_s_at) / RFU REEP3 (11722064_at) / Fold change /veh REEP3 (11722064_at) / RFU IGLL1 (11728026_x_at) / Fold change /veh IGLL1 (11728026_x_at): dose or concentration left out as unconfirmed. As to conditions: ProbeSet 11757113_a_at; LIST D.

Take `Nc1ccc(-c2cccs2)cc1NC(=O)c1ccc2c(c1)cc(C1CC1)n2CCN1CCOCC1` [ACY-1035]: the “Fold change vs veh, SNHG1 /// SNORD22 /// SNORD25 /// SNORD26 /// SNORD27 /// SNORD28 /// SNORD29 /// SNORD31” value is 0.87.
